{"source": "DBAASP", "test_in_all_cases": "≥ marks a high value that may be exact or a test limit, other limits are often not marked, values filed in µg/mL are converted to µM", "key": {"Fusarium oxysporum": {"test_system": "Fusarium oxysporum"}, "Fusarium culmorum": {"test_system": "Fusarium culmorum"}, "Aspergillus fumigatus": {"test_system": "Aspergillus fumigatus"}, "Trichoderma viride": {"test_system": "Trichoderma viride"}, "[1]": {"test_system": "Trichophyton mentagrophytes"}, "Staphylococcus aureus": {"test_system": "Staphylococcus aureus"}, "Saccharomyces cerevisiae": {"test_system": "Saccharomyces cerevisiae"}, "[2]": {"test_system": "Candida albicans ATCC 2002"}, "Shigella dysenteriae": {"test_system": "Shigella dysenteriae"}, "Bacillus pumilus": {"test_system": "Bacillus pumilus"}, "[3]": {"test_system": "Staphylococcus aureus ATCC 2592"}, "Bacillus cereus": {"test_system": "Bacillus cereus"}, "Pseudomonas aeruginosa": {"test_system": "Pseudomonas aeruginosa"}, "[4]": {"test_system": "Escherichia coli ATCC 25922"}, "[5]": {"test_system": "Acinetobacter calcoaceticus"}, "[6]": {"test_system": "Candida albicans ATCC 14053"}, "[7]": {"test_system": "Klebsiella pneumoniae ATCC 700603"}, "[8]": {"test_system": "Candida tropicalis ATCC 750"}, "[9]": {"test_system": "Pseudomonas aeruginosa ATCC 27853"}, "[10]": {"test_system": "Candida parapsilosis ATCC 22019"}, "[11]": {"test_system": "Staphylococcus epidermidis"}, "Escherichia coli": {"test_system": "Escherichia coli"}, "Candida krusei ATCC 6258": {"test_system": "Candida krusei ATCC 6258"}, "Salmonella typhimurium": {"test_system": "Salmonella typhimurium"}, "[12]": {"test_system": "Pseudomonas aeruginosa ATCC 15422"}, "[13]": {"test_system": "Candida glabrata ATCC 2001"}, "[14]": {"test_system": "Staphylococcus epidermidis ATCC 12228"}, "[15]": {"test_system": "Bacillus subtilis ATCC 23857"}, "[16]": {"test_system": "Staphylococcus aureus ATCC 29213"}, "Escherichia coli ML-35": {"test_system": "Escherichia coli ML-35"}, "Klebsiella pneumoniae": {"test_system": "Klebsiella pneumoniae"}, "[17]": {"test_system": "Bacillus subtilis CCT 2576"}, "Bacillus subtilis": {"test_system": "Bacillus subtilis"}, "[18]": {"test_system": "Cronobacter sakazakii ATCC 29544"}, "[19]": {"test_system": "Staphylococcus aureus ATCC 6538"}, "Escherichia coli O111": {"test_system": "Escherichia coli O111"}, "[20]": {"test_system": "Pseudomonas aeruginosa PAO1"}, "[21]": {"test_system": "Salmonella enterica subsp. enterica serovar Typhimurium ATCC 14028s"}, "Candida albicans 105": {"test_system": "Candida albicans 105"}, "[22]": {"test_system": "Staphylococcus aureus 1056"}, "[23]": {"test_system": "Staphylococcus aureus R147"}, "[24]": {"test_system": "Pseudomonas aeruginosa Z61"}, "Escherichia coli O157:H7": {"test_system": "Escherichia coli O157:H7"}, "[25]": {"test_system": "Staphylococcus aureus NCTC 4163"}, "Candida albicans 3153A": {"test_system": "Candida albicans 3153A"}, "Escherichia coli DC2": {"test_system": "Escherichia coli DC2"}, "Escherichia coli UB1005": {"test_system": "Escherichia coli UB1005"}, "[26]": {"test_system": "Salmonella enterica serovar Typhimurium MS4252S"}, "[27]": {"test_system": "Enterococcus faecalis ATCC 29212"}}, "note": "“And” between values parts separate entries of the source, which are not always exact repeats. Equal entries are not always repeated."}
{"compound": "CC[C@H](C)[C@@H]1NC(=O)[C@@H]2CSSC[C@@H](C(=O)N[C@@H](CCCN=C(N)N)C(=O)N[C@@H](CCCN=C(N)N)C(=O)O)NC(=O)[C@H]([C@@H](C)O)NC(=O)[C@@H]3CSSC[C@H](NC(=O)[C@H](C)NC(=O)[C@H](C)NC(=O)[C@H](Cc4cnc[nH]4)NC(=O)CNC(=O)[C@H](C(C)C)NC(=O)CNC(=O)[C@H](Cc4ccccc4)NC(=O)[C@H](C)NC(=O)[C@H](CO)NC(=O)[C@H](CC(C)C)NC(=O)[C@H](CC(C)C)NC(=O)[C@H](CC(=O)O)NC(=O)[C@@H](NC(=O)[C@@H](NC(=O)[C@H](C)N)[C@@H](C)O)CSSC[C@H](NC(=O)[C@H](Cc4ccc(O)cc4)NC(=O)CNC(=O)CNC(=O)[C@H](CCCN=C(N)N)NC(=O)[C@H](Cc4ccc(O)cc4)NC(=O)CNC(=O)[C@H](Cc4cnc[nH]4)NC(=O)CNC1=O)C(=O)N[C@@H](CC(N)=O)C(=O)N[C@@H](CO)C(=O)N[C@@H](CCCCN)C(=O)N[C@@H](C)C(=O)N[C@@H](C(C)C)C(=O)N3)C(=O)N[C@@H](C)C(=O)N[C@@H](C)C(=O)N[C@@H](Cc1cnc[nH]1)C(=O)N2", "note": "[ATCDLLSAFGVGHAACAAHCIGHGYRGGYCNSKAVCTCRR]", "values": [{"measurement": "MIC", "setting": "Fusarium oxysporum", "value": 4.42, "unit": "µM"}, {"measurement": "MIC", "setting": "Fusarium culmorum", "value": 2.21, "unit": "µM"}, {"measurement": "MIC", "setting": "Aspergillus fumigatus", "value": 17.7, "unit": "µM"}, {"measurement": "MIC", "setting": "Trichoderma viride", "value": 4.42, "unit": "µM"}, {"measurement": "MIC", "setting": "[1]", "value": "≥ 35.4", "unit": "µM"}, {"measurement": "MIC", "setting": "Staphylococcus aureus", "value": 1.1, "unit": "µM"}, {"measurement": "MIC", "setting": "Saccharomyces cerevisiae", "value": "≥ 35.4", "unit": "µM"}]}
{"compound": "CC[C@H](C)[C@H](NC(=O)[C@@H]1CCCN1C(=O)[C@H](Cc1ccccc1)NC(=O)[C@@H](N)Cc1ccccc1)C(=O)N[C@H](C(=O)NCC(=O)N[C@@H](CCCCN)C(=O)N[C@@H](CC(C)C)C(=O)N[C@@H](CC(C)C)C(=O)N[C@@H](Cc1ccccc1)C(=O)NCC(=O)N[C@@H](CC(C)C)C(=O)N[C@@H](CO)C(=O)NCC(=O)N[C@@H](CC(C)C)C(=O)N[C@@H](CC(C)C)C(N)=O)C(C)C", "note": "[FFPIVGKLLFGLSGLL]", "values": [{"measurement": "MIC", "setting": "[2]", "value": 0.726, "unit": "µM"}, {"measurement": "MIC", "setting": "Shigella dysenteriae", "value": 2.91, "unit": "µM"}, {"measurement": "MIC", "setting": "Bacillus pumilus", "value": 2.91, "unit": "µM"}, {"measurement": "MIC", "setting": "[3]", "value": 0.726, "unit": "µM"}, {"measurement": "MIC", "setting": "Bacillus cereus", "value": 8.72, "unit": "µM"}, {"measurement": "MIC", "setting": "Pseudomonas aeruginosa", "value": 2.91, "unit": "µM"}, {"measurement": "MIC", "setting": "[4]", "value": 0.726, "unit": "µM"}, {"measurement": "MIC", "setting": "[5]", "value": 8.72, "unit": "µM"}]}
{"compound": "CC[C@H](C)[C@H](N)C(=O)N[C@@H](CC(=O)O)C(=O)N[C@@H](Cc1c[nH]c2ccccc12)C(=O)N[C@@H](CCCCN)C(=O)N[C@@H](CCCCN)C(=O)N[C@@H](CC(C)C)C(=O)N[C@@H](CC(C)C)C(=O)N[C@@H](CC(=O)O)C(=O)N[C@@H](C)C(=O)N[C@@H](C)C(=O)N[C@@H](CCCCN)C(=O)N[C@@H](CCC(N)=O)C(=O)N[C@H](C(=O)N[C@@H](CC(C)C)C(N)=O)[C@@H](C)CC", "note": "[IDWKKLLDAAKQIL]", "values": [{"measurement": "MIC", "setting": "[6]", "value": 8, "unit": "µM"}, {"measurement": "MIC", "setting": "[7]", "value": 64, "unit": "µM"}, {"measurement": "MIC", "setting": "[8]", "value": 8, "unit": "µM"}, {"measurement": "MIC", "setting": "Shigella dysenteriae", "value": "≥ 45.3", "unit": "µM"}, {"measurement": "MIC", "setting": "[9]", "value": 128, "unit": "µM"}, {"measurement": "MIC", "setting": "[10]", "value": "≥ 64", "unit": "µM"}, {"measurement": "MIC", "setting": "[11]", "value": "≥ 60.4", "unit": "µM"}, {"measurement": "MIC", "setting": "Escherichia coli", "value": 45.3, "unit": "µM"}, {"measurement": "MIC", "setting": "Candida krusei ATCC 6258", "value": 8, "unit": "µM"}, {"measurement": "MIC", "setting": "Salmonella typhimurium", "value": "≥ 60.4", "unit": "µM"}, {"measurement": "MIC", "setting": "[12]", "value": 4.83, "unit": "µM"}, {"measurement": "MIC", "setting": "[13]", "value": 8, "unit": "µM"}, {"measurement": "MIC", "setting": "Pseudomonas aeruginosa", "value": "> 60.4", "unit": "µM"}, {"measurement": "MIC", "setting": "[14]", "value": "32 µM and > 16 µM"}, {"measurement": "MIC", "setting": "[15]", "value": "8 µM and 4 µM"}, {"measurement": "MIC", "setting": "[16]", "value": 32, "unit": "µM"}, {"measurement": "MIC", "setting": "Escherichia coli ML-35", "value": "≥ 32", "unit": "µM"}, {"measurement": "MIC", "setting": "Klebsiella pneumoniae", "value": 22.7, "unit": "µM"}, {"measurement": "MIC", "setting": "[17]", "value": 2.42, "unit": "µM"}, {"measurement": "MIC", "setting": "Bacillus subtilis", "value": 7.55, "unit": "µM"}, {"measurement": "MIC", "setting": "[18]", "value": "≥ 64", "unit": "µM"}, {"measurement": "MIC", "setting": "[19]", "value": 9.06, "unit": "µM"}, {"measurement": "MIC", "setting": "Staphylococcus aureus", "value": 11.4, "unit": "µM"}]}
{"compound": "CC[C@H](C)[C@H](NC(=O)[C@@H]1CCCN1C(=O)[C@@H]1CCCN1C(=O)[C@H](CCCN=C(N)N)NC(=O)[C@H](Cc1ccccc1)NC(=O)[C@@H](N)CCCN=C(N)N)C(=O)N[C@@H](CCCN=C(N)N)C(=O)N[C@@H](CCCN=C(N)N)C(=O)N1CCC[C@H]1C(=O)N1CCC[C@H]1C(=O)N[C@H](C(=O)N[C@@H](CCCN=C(N)N)C(=O)N1CCC[C@H]1C(=O)N1CCC[C@H]1C(=O)N[C@@H](Cc1ccccc1)C(=O)N[C@@H](CCCN=C(N)N)C(=O)N1CCC[C@H]1C(=O)N1CCC[C@H]1C(=O)N[C@@H](Cc1ccccc1)C(=O)N[C@@H](CCCN=C(N)N)C(=O)N1CCC[C@H]1C(=O)N1CCC[C@H]1C(=O)N[C@H](C(=O)N[C@@H](CCCN=C(N)N)C(N)=O)C(C)C)[C@@H](C)CC", "note": "[RFRPPIRRPPIRPPFRPPFRPPVR]", "values": [{"measurement": "MIC", "setting": "Escherichia coli O111", "value": 0.665, "unit": "µM"}, {"measurement": "MIC", "setting": "[20]", "value": 1.33, "unit": "µM"}, {"measurement": "MIC", "setting": "[21]", "value": 0.166, "unit": "µM"}, {"measurement": "MIC", "setting": "[11]", "value": 5.32, "unit": "µM"}, {"measurement": "MIC", "setting": "Candida albicans 105", "value": 10.6, "unit": "µM"}, {"measurement": "MIC", "setting": "[22]", "value": "5.32 µM and 8.65 µM"}, {"measurement": "MIC", "setting": "[23]", "value": 21.3, "unit": "µM"}, {"measurement": "MIC", "setting": "[24]", "value": 2.66, "unit": "µM"}, {"measurement": "MIC", "setting": "Escherichia coli O157:H7", "value": "2.66 µM and 5.42 µM"}, {"measurement": "MIC", "setting": "[25]", "value": 10.6, "unit": "µM"}, {"measurement": "MIC", "setting": "Candida albicans 3153A", "value": 5.32, "unit": "µM"}, {"measurement": "MIC", "setting": "Escherichia coli DC2", "value": 0.0416, "unit": "µM"}, {"measurement": "MIC", "setting": "Escherichia coli UB1005", "value": 0.0416, "unit": "µM"}, {"measurement": "MIC", "setting": "[26]", "value": 0.0416, "unit": "µM"}, {"measurement": "MIC", "setting": "[27]", "value": 10.6, "unit": "µM"}]}
